# Measurements as given in patent publication US5710130A, “Antithrombotic agents” (Eli Lilly and Company, priority 1995, dated 1998).
# Where a name gives a salt, the structure may show the parent alone.
# Legend:
# Format in all cases: biochemical
# Human Thrombin = Human Thrombin (Homo sapiens, UniProt P00734); test: Inhibition of thrombin amidase activity (Kass), chromogenic substrate; conditions: mean Kass over a range of concentrations; substrate N-benzoyl-Phe-Val-Arg-p-nitroanilide
# human plasma [1] = test: Human plasma anticoagulation, thrombin time (TT); conditions: concentration required to double thrombin time, linear extrapolation
# Method: (§1) Dog plasma and rat plasma is obtained from conscious mixed-breed hounds (either sex, Hazelton-LRE, Kalamazoo, Mich., U.S.A.) or from anesthetized male Sprague-Dawley rats (Harlan Sprague-Dawley, Inc., Indianapolis, Ind., U.S.A.) by venipuncture into 3.8 percent citrate. Fibrinogen is prepared from in-date ACD human blood as the fraction I-2 according to previous procedures and specifications. […] Human fibrinogen is also purchased as 98 percent pure/plasmin free from American Diagnostica, Greenwich, Conn. Coagulation reagents ACTIN, Thromboplastin, and Human plasma are from Baxter Healthcare Corp., Dade Division, Miami, Fla. Bovine thrombin from Parke-Davis ([…], Mich.) is used for coagulation assays in plasma.
# (§2) Coagulation assay procedures are as previously described. […] A CoAScreener coagulation instrument (American LABor, Inc.) is used for all coagulation assay measurements. The prothrombin time (PT) is measured by adding 0.05 mL saline and 0.05 mL Thromboplastin-C reagent to 0.05 mL test plasma. The activated partial thromboplastin time (APTT) is measured by incubation of 0.05 mL test plasma with 0.05 mL Actin reagent for 120 seconds followed by 0.05 mL CaCl2 (0.02M). The thrombin time (TT) is measured by adding 0.05 mL saline and 0.05 mL thrombin (10 NIH units/mL) to 0.05 mL test plasma. The compounds of Formula I are added to human or animal plasma over a wide range of concentrations to determine prolongation effects on the APTT, PT, and TT assays. Linear extrapolations are performed to estimate the concentrations required to double the clotting time for each assay.
# human plasma [2] = test: Human plasma anticoagulation, prothrombin time (PT); conditions: concentration required to double PT, linear extrapolation
# Method: as §1, §2
# human plasma [3] = test: Human plasma anticoagulation, activated partial thromboplastin time (APTT); conditions: concentration required to double APTT, linear extrapolation
# Method: as §1, §2
compound,measurement,setting,value
"Cl.NC(N)=NC/C=C/CNC(=O)[C@@H]1CCCN1C(=O)[C@H](N)Cc1ccccc1 (relative stereo) [Example 8, D-Phe-Pro-NHCH2 -trans-CH=CHCH2 NHC(NH)NH2.HCl]",Kass Human Thrombin,Human Thrombin,5.3 × 10^6 (L/mole)
same,Human Plasma Anticoagulation 2x Clotting time TT,human plasma [1],130 ng/mL
"Cl.NC[C@H]1CC[C@H](CNC(=O)[C@@H]2CCCN2C(=O)[C@H](N)Cc2ccccc2)CC1 (relative stereo) [Example 12, D-Phe-Pro-NHCH2 -trans-4-(aminomethyl)cyclohexane.HCl]",Kass Human Thrombin,Human Thrombin,0.44 × 10^6 (L/mole)
same,Human Plasma Anticoagulation 2x Clotting time TT,human plasma [1],"1,700 ng/mL"
"CCS(=O)(=O)N[C@H](CC1CCCCC1)C(=O)N1CCC[C@H]1C(=O)NCCCCN=C(N)N.Cl [Example 2, EtSO2 -D-Cha-Pro-Agm.HCl]",Kass Human Thrombin,Human Thrombin,4.4 × 10^6 (L/mole)
same,Human Plasma Anticoagulation 2x Clotting time TT,human plasma [1],170 ng/mL
"CCOC(=O)N[C@H](Cc1ccccc1)C(=O)N1CCC[C@H]1C(=O)NCCCCN=C(N)N.Cl [Example 3, EtOCO-D-Phe-Pro-Agm.HCl]",Kass Human Thrombin,Human Thrombin,2.1 × 10^6 (L/mole)
same,Human Plasma Anticoagulation 2x Clotting time TT,human plasma [1],590 ng/mL
"Cl.NCc1cccc(CNC(=O)[C@@H]2CCCN2C(=O)[C@H](N)Cc2ccccc2)c1 [Example 11, D-Phe-Pro-m-NHCH2 C6 H4 CH2 NH2.HCl]",Kass Human Thrombin,Human Thrombin,0.064 × 10^6 (L/mole)
same,Human Plasma Anticoagulation 2x Clotting time TT,human plasma [1],"8,800 ng/mL"
"Cl.Nc1ccc(CCNC(=O)[C@@H]2CCCN2C(=O)[C@H](N)Cc2ccccc2)cc1 [Example 14, D-Phe-Pro-p-NHCH2 CH2 C6 H4 NH2.HCl]",Kass Human Thrombin,Human Thrombin,0.021 × 10^6 (L/mole)
same,Human Plasma Anticoagulation 2x Clotting time TT,human plasma [1],"21,000 ng/mL"
"CCS(=O)(=O)N[C@H](Cc1ccccc1)C(=O)N1CCC[C@H]1C(=O)NCCc1cccc(C(=N)N)c1.Cl [Example 27, EtSO2 -D-Phe-Pro-m-NHCH2 CH2 -C6 H4 C(=NH)NH2.HCl]",Kass Human Thrombin,Human Thrombin,0.29 × 10^6 (L/mole)
same,Human Plasma Anticoagulation 2x Clotting time PT,human plasma [2],"27,000 ng/mL"
"Cl.N=C(N)c1ccc(CCCNC(=O)C2CCCN2C(=O)C2NCCC3CCCCC32)cc1 (stereo not drawn) [Example 32, 1-Piq-Pro-p-NHCH2 CH2 CH2 -C6 H4 C(=NH)NH2.2HCl]",Kass Human Thrombin,Human Thrombin,0.13 × 10^6 (L/mole)
same,Human Plasma Anticoagulation 2x Clotting time TT,human plasma [1],"3,100 ng/mL"
"CCS(=O)(=O)N[C@H](Cc1ccccc1)C(=O)N1CCC[C@H]1C(=O)NCCc1ccc(NC(=N)N)cc1 [Example 35, EtSO2 -D-Phe-Pro-p-NHCH2 CH2 C6 H4 NHC(NH)NH2.HCl]",Human Plasma Anticoagulation 2x Clotting time TT,human plasma [1],"4,500 ng/mL"
same,Human Plasma Anticoagulation 2x Clotting time PT,human plasma [2],"78,400 ng/mL"
same,Human Plasma Anticoagulation 2x Clotting time APTT,human plasma [3],"50,400 ng/mL"
"CCS(=O)(=O)N[C@H](Cc1ccccc1)C(=O)N1CCC[C@H]1C(=O)NCc1cccc(NC(=N)N)c1 [Example 36, EtSO2 -D-Phe-Pro-m-NHCH2 C6 H4 NHC(NH)NH2.HCl]",Human Plasma Anticoagulation 2x Clotting time TT,human plasma [1],"7,700 ng/mL"
same,Human Plasma Anticoagulation 2x Clotting time PT,human plasma [2],"> 91,000 ng/mL"
same,Human Plasma Anticoagulation 2x Clotting time APTT,human plasma [3],"> 91,000 ng/mL"
"N=C(N)c1ccc(CNC(=O)[C@@H]2CCCN2C(=O)[C@@H](CC2CCCCC2)NCC(=O)O)cc1 [Example 48, N-(carboxymethyl)-D-cyclohexylalanyl-N-[[4-(aminoiminomethyl)phenyl]methyl]-L-prolinamide]",Human Plasma Anticoagulation 2x Clotting time TT,human plasma [1],2 ng/mL
same,Human Plasma Anticoagulation 2x Clotting time PT,human plasma [2],59 ng/mL
same,Human Plasma Anticoagulation 2x Clotting time APTT,human plasma [3],33 ng/mL
"N=C(N)c1ccc(CNC(=O)[C@@H]2CCCN2C(=O)[C@H](N)CC2CCCCC2)cc1 [Example 51, D-cyclohexylalanyl-N-[[4-(aminoiminomethyl)phenyl]methyl]-L-prolinamide di-hydrochloride]",Human Plasma Anticoagulation 2x Clotting time TT,human plasma [1],2 ng/mL
same,Human Plasma Anticoagulation 2x Clotting time PT,human plasma [2],110 ng/mL
same,Human Plasma Anticoagulation 2x Clotting time APTT,human plasma [3],48 ng/mL
"N=C(N)c1ccc(CNC(=O)[C@@H]2CCCN2C(=O)[C@@H](CC2CCCCC2)NCCC(=O)O)cc1 [Example 52, N-(2-carboxyethyl)-D-cyclohexylalanyl-N-[[4-(aminoiminomethyl)phenyl]methyl]-L-prolinamide hydrochloride]",Human Plasma Anticoagulation 2x Clotting time TT,human plasma [1],6 ng/mL
same,Human Plasma Anticoagulation 2x Clotting time PT,human plasma [2],170 ng/mL
same,Human Plasma Anticoagulation 2x Clotting time APTT,human plasma [3],80 ng/mL
"N=C(N)N1CCC(CNC(=O)[C@@H]2CCCN2C(=O)[C@@H](CC2CCCCC2)NCC(=O)O)CC1 [Example 56, N-(carboxymethyl)-D-cyclohexylalanyl-N-[[1-(aminoiminomethyl)-hexahydropyridin-4-yl-]methyl]-L-prodimamide hydrochloride]",Human Plasma Anticoagulation 2x Clotting time TT,human plasma [1],5 ng/mL
same,Human Plasma Anticoagulation 2x Clotting time PT,human plasma [2],200 ng/mL
same,Human Plasma Anticoagulation 2x Clotting time APTT,human plasma [3],160 ng/mL
"Cl.O=C(O)CN[C@H](CC1CCCCC1)C(=O)N1CCC[C@H]1C(=O)NCC1=CCNCC1 [Example 58, HO2 CCH2 -D-Cha-Pro-4-NHCH2 -3,4-dehydro-piperidine.HCl]",Kass Human Thrombin,Human Thrombin,0.60 × 10^6 (L/mole)
same,Human Plasma Anticoagulation 2x Clotting time TT,human plasma [1],710 ng/mL
"Cl.O=C(O)CN[C@H](CC1CCCCC1)C(=O)N1CCC[C@H]1C(=O)NCCCC1=CCNCC1 [Example 60, HO2 CCH2 -D-Cha-Pro-4-NHCH2 CH2 CH2 -3,4-dehydro-piperidine.HCl]",Kass Human Thrombin,Human Thrombin,0.24 × 10^6 (L/mole)
same,Human Plasma Anticoagulation 2x Clotting time TT,human plasma [1],"3,200 ng/mL"
"N=C(N)N1CC=C(CNC(=O)[C@@H]2CCCN2C(=O)[C@@H](CC2CCCCC2)NCC(=O)O)CC1 [Example 70, N-(carboxymethyl)-D-cyclohexylalanyl-N-[[1-(aminoiminomethyl)-1,2,3,6-tetrahydropyridin-4-yl]methyl]-L-prolinamide hydrochloride]",Human Plasma Anticoagulation 2x Clotting time TT,human plasma [1],2 ng/mL
same,Human Plasma Anticoagulation 2x Clotting time PT,human plasma [2],180 ng/mL
same,Human Plasma Anticoagulation 2x Clotting time APTT,human plasma [3],160 ng/mL
"Cl.Nc1ccc(CCNC(=O)[C@@H]2CCCN2C(=O)[C@@H](CC2CCCCC2)NCC(=O)O)cn1 [Example 75, HO2 CCH2 -D-Cha-Pro-5-NHCH2 CH2 -2-aminopyridine.HCl]",Kass Human Thrombin,Human Thrombin,0.45 × 10^6 (L/mole)
"NCC1CCC(CNC(=O)[C@@H]2CCCN2C(=O)[C@@H](CC2CCCCC2)NCC(=O)O)CC1 (stereo partly drawn) [Example 79, HO2 CCH2 -D-Cha-Pro-4-NHCH2 C6 H10 CH2 NH2.HCl]",Human Plasma Anticoagulation 2x Clotting time TT,human plasma [1],140 ng/mL
same,Human Plasma Anticoagulation 2x Clotting time PT,human plasma [2],"2,400 ng/mL"
same,Human Plasma Anticoagulation 2x Clotting time APTT,human plasma [3],"1,700 ng/mL"
"CCS(=O)(=O)N[C@H](CC1CCCCC1)C(=O)N1CCC[C@H]1C(=O)NCc1ccc(CN)cc1 [Example 81, EtSO2 -D-Cha-Pro-4-NHCH2 C6 H4 CH2 NH2.HCl]",Human Plasma Anticoagulation 2x Clotting time TT,human plasma [1],110 ng/mL
same,Human Plasma Anticoagulation 2x Clotting time PT,human plasma [2],"2,700 ng/mL"
same,Human Plasma Anticoagulation 2x Clotting time APTT,human plasma [3],"1,500 ng/mL"
"N=C(N)c1ccc(CNC(=O)[C@@H]2CCCN2C(=O)[C@@H](CCC2CCCCC2)NCC(=O)O)cc1 [Example 88, hydrochloride]",Human Plasma Anticoagulation 2x Clotting time TT,human plasma [1],4 ng/mL
same,Human Plasma Anticoagulation 2x Clotting time PT,human plasma [2],200 ng/mL
same,Human Plasma Anticoagulation 2x Clotting time APTT,human plasma [3],100 ng/mL
"CCC(CC)C(=O)N[C@@H](CCS(C)(=O)=O)C(=O)N1CCC[C@H]1C(=O)NCc1ccc(C(=N)N)cc1 [Example 91, (C2 H5)2 CHCO-Met(O2)-Pro-p-NHCH2 C6 H4 C(NH)NH2.HCl]",Human Plasma Anticoagulation 2x Clotting time TT,human plasma [1],63 ng/mL
same,Human Plasma Anticoagulation 2x Clotting time PT,human plasma [2],"3,500 ng/mL"
same,Human Plasma Anticoagulation 2x Clotting time APTT,human plasma [3],"3,000 ng/mL"
"CS(=O)(=O)CC(=O)N[C@H](CC1CCCCC1)C(=O)N1CCC[C@H]1C(=O)NCc1ccc(C(=N)N)cc1 [Example 92, (N-methylsulfonylacetyl)-L-cyclohexylalanyl-N-[[4-(aminoiminomethyl)phenyl]methyl]-L-prolinamide hydrochloride]",Human Plasma Anticoagulation 2x Clotting time TT,human plasma [1],8.9 ng/mL
same,Human Plasma Anticoagulation 2x Clotting time PT,human plasma [2],340 ng/mL
same,Human Plasma Anticoagulation 2x Clotting time APTT,human plasma [3],210 ng/mL
(S-cis)-N-[[4-(amino iminomethyl)phenyl]methyl]-1-[N-(ethylsulfonyl)-D-phenylglycyl]-1H-indole- 2-carboxamide hydrochloride [Example 44],Human Plasma Anticoagulation 2x Clotting time TT,human plasma [1],4 ng/mL
same,Human Plasma Anticoagulation 2x Clotting time PT,human plasma [2],170 ng/mL
same,Human Plasma Anticoagulation 2x Clotting time APTT,human plasma [3],100 ng/mL
